Among the test systems are RPMI-8226 leukemia; SF-268 CNS; KM12 colon; HOP-62 NSCLC; SNB-75 CNS; K-562 leukemia; NCI-H460 lung; SK-MEL-28 melanoma; TK-10 renal.
Holding throughout (test): inhibition of tumour cell growth, NCI panel, 48 h

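Cells were grown in 96-well plates and exposed to each compound for 48 hours at five concentrations; endpoints were interpolated linearly between bracketing concentrations, or set to the highest concentration if not reached. GI50 is the concentration that inhibits growth by half. TGI marks complete inhibition of growth.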

As for `CCOC(=O)NC(=O)c1cn(C2OC(CO)C(O)C2O)c(=O)[nH]c1=O` (configuration not stated), the TGI in the assay on RPMI-8226 leukemia, with SF-268 CNS, in the assay on KM12 colon, in the assay on HOP-62 NSCLC, in the assay on SNB-75 CNS and in the assay on K-562 leukemia was over 100 µM throughout. Further, the TGI in the assay on NCI-H460 lung and in the assay with SK-MEL-28 melanoma was over 100 µM throughout.

With `COc1cc(C(=O)C/C(CCC(=O)Nc2ccc(Cl)cc2Cl)=N/Nc2nnc(C)n2N)ccc1O`, the TGI in the assay with RPMI-8226 leukemia, with SF-268 CNS, with KM12 colon, in the assay on HOP-62 NSCLC, in the assay with SNB-75 CNS and in the assay on NCI-H460 lung was over 100 µM throughout. Besides, the TGI in the assay on TK-10 renal and with SK-MEL-28 melanoma was over 100 µM in each case.

As to `O=c1cccccc1NCCNc1cccccc1=O`, the TGI with RPMI-8226 leukemia, in the assay on SF-268 CNS, in the assay on KM12 colon, with HOP-62 NSCLC, in the assay with K-562 leukemia and in the assay with NCI-H460 lung was over 100 µM each time.

With `C[C@@H](c1ccccc1)N(CC#N)C1CCC[C@H]1O` (some centres not stated), the TGI in the assay on RPMI-8226 leukemia, with SF-268 CNS, in the assay with KM12 colon, in the assay with HOP-62 NSCLC, in the assay on SNB-75 CNS and in the assay on K-562 leukemia was over 100 µM each time. Also, the TGI in the assay on NCI-H460 lung, in the assay with TK-10 renal and in the assay on SK-MEL-28 melanoma was over 100 µM throughout.

Take `O=C(Nc1ccccc1C(=O)O)C(=O)C(C(=O)c1ccccc1-c1ccccc1)C1OC(=O)c2ccccc21` (configuration not stated): the TGI in the assay on RPMI-8226 leukemia is 98.2 µM; in the assay with SF-268 CNS, 39.5 µM; in the assay on KM12 colon, 33.6 µM; with HOP-62 NSCLC it was 37.8 µM; with SNB-75 CNS, 53.5 µM; with K-562 leukemia, over 100 µM. Further, the TGI in the assay with NCI-H460 lung was 32.7 µM; in the assay on TK-10 renal, 29.6 µM; in the assay with SK-MEL-28 melanoma, 35.1 µM.

On to `N[C@H](C(=O)O)[C@@H](Cl)CC(=O)O`, for which the TGI with RPMI-8226 leukemia, in the assay on SF-268 CNS, with KM12 colon, in the assay on HOP-62 NSCLC, in the assay on SNB-75 CNS and in the assay on K-562 leukemia was over 100 µM each time. For the same compound, the TGI in the assay on NCI-H460 lung, in the assay on TK-10 renal and with SK-MEL-28 melanoma was over 100 µM each time.

As for `COC(=O)C1=C(c2cc(OC)c(OC)c(OC)c2)O[C@H](c2ccc3c(c2)OCO3)[C@H]1COC(C)=O`, the TGI in the assay with RPMI-8226 leukemia is over 100 µM; with KM12 colon it was over 100 µM; with HOP-62 NSCLC it was over 100 µM; with SNB-75 CNS, over 100 µM; in the assay with K-562 leukemia, 91.8 µM; with NCI-H460 lung, over 100 µM. In the assay with TK-10 renal, this compound displayed a TGI of over 100 µM.

With `C/C=C/C(=O)[O-].N.N.N.N.N.[Co+3].[O-][Cl+3]([O-])([O-])[O-]`, the GI50 in the assay on RPMI-8226 leukemia is over 100 µM; in the assay with SF-268 CNS it was over 100 µM; in the assay on KM12 colon, over 100 µM; with HOP-62 NSCLC, over 100 µM; in the assay with SNB-75 CNS, 84.7 µM; in the assay with K-562 leukemia, over 100 µM. Besides, the GI50 in the assay on NCI-H460 lung, with TK-10 renal and in the assay with SK-MEL-28 melanoma was over 100 µM each time. Further, the TGI in the assay with RPMI-8226 leukemia, with SF-268 CNS, in the assay on KM12 colon, in the assay on HOP-62 NSCLC, in the assay on SNB-75 CNS and in the assay on K-562 leukemia was over 100 µM each time. The TGI in the assay with NCI-H460 lung, in the assay on TK-10 renal and in the assay with SK-MEL-28 melanoma was over 100 µM throughout.

On to `Cc1ccc(SCC(O)=C2C(=O)CCCC2=O)cc1`, for which the TGI in the assay on RPMI-8226 leukemia, with SF-268 CNS, in the assay with KM12 colon, in the assay with HOP-62 NSCLC, in the assay with SNB-75 CNS and in the assay with K-562 leukemia was over 100 µM each time. For the same compound, the TGI in the assay with NCI-H460 lung, in the assay with TK-10 renal and with SK-MEL-28 melanoma was over 100 µM each time.

Regarding `COc1cc2c3c(c1OC)Oc1ccc(cc1)CC1c4c(cc(OC)c(OC)c4Oc4ccc(cc4)CC3N(C)CC2)CCN1C` (configuration not stated), the TGI in the assay on RPMI-8226 leukemia is 70.4 µM; in the assay on SF-268 CNS, 64.5 µM; with KM12 colon, over 100 µM; with HOP-62 NSCLC it was 61.4 µM; with SNB-75 CNS, 49.2 µM; in the assay with K-562 leukemia, 35.5 µM. In addition, the TGI in the assay on NCI-H460 lung was 37.1 µM; with TK-10 renal it was 46.1 µM; in the assay with SK-MEL-28 melanoma, 34.2 µM.

Regarding `CCC1(CC)C(=O)[N-]C(=O)[N-]C1=O.[Au+].[Au+].c1ccc([PH+](c2ccccc2)c2ccccc2)cc1.c1ccc([PH+](c2ccccc2)c2ccccc2)cc1`, the GI50 with NCI-H460 lung was 1.99 µM; with TK-10 renal it was 1.79 µM; in the assay on SK-MEL-28 melanoma, 0.988 µM. The TGI is 4.69 µM in the assay on NCI-H460 lung, 3.18 µM with TK-10 renal and 2.34 µM with SK-MEL-28 melanoma.

`O=C1C2=C(c3ccccc31)C(c1ccc(Cl)cc1)NC(=S)N2` (configuration not stated): the TGI was 52.8 µM with RPMI-8226 leukemia; 40.1 µM in the assay on SF-268 CNS; 52.5 µM in the assay on KM12 colon; over 100 µM in the assay with HOP-62 NSCLC; 34 µM in the assay with SNB-75 CNS; 40.2 µM with K-562 leukemia. The TGI in the assay on NCI-H460 lung is over 100 µM; with TK-10 renal, 48.9 µM; with SK-MEL-28 melanoma, 34.1 µM.

For the compound `O=C1C2=C(c3ccccc31)C(c1ccc(F)cc1)N1C(=O)CCSC1=N2` (configuration not stated), the TGI in the assay on RPMI-8226 leukemia, with SF-268 CNS, in the assay on KM12 colon, in the assay with HOP-62 NSCLC, in the assay with SNB-75 CNS and in the assay with K-562 leukemia was over 100 µM each time. Also, the TGI in the assay with NCI-H460 lung, in the assay with TK-10 renal and in the assay on SK-MEL-28 melanoma was over 100 µM each time.

On to `Cc1ccc(C)c2c1CCc1cc3ccccc3nc1-2`, for which the TGI with RPMI-8226 leukemia, with SF-268 CNS, in the assay on KM12 colon, in the assay on HOP-62 NSCLC, in the assay with SNB-75 CNS and in the assay on K-562 leukemia was over 100 µM in each case. Also, the TGI in the assay on NCI-H460 lung, in the assay with TK-10 renal and in the assay on SK-MEL-28 melanoma was over 100 µM in each case.

As for `O=C(O)Cc1cc(=O)[nH]c2c1C(=O)CCC2`, the TGI in the assay with RPMI-8226 leukemia, with SF-268 CNS, with KM12 colon, in the assay with K-562 leukemia, in the assay on NCI-H460 lung and in the assay on TK-10 renal was over 100 µM each time. Moreover, the TGI in the assay on SK-MEL-28 melanoma is over 100 µM.

(Values after PubChem BioAssay (NCI).)
